What was measured:
[1] = test system: BHK 21 Syrian hamster fibroblast line; experiment: Cell growth of BHK cultures (DNA + RNA content), Cr compounds added directly to medium; format: cell-based; conditions: 48 h in MEM
Experimental: (§1) Cell growth and labelling.-The reduction in cell growth, based on the nucleic acid content (DNA + RNA) of treated cultures, and the inhibition of DNA, RNA and protein syn- thesis, based on the incorporation of labelled precursors, were determined, to evaluate the cytotoxic effects of Cr compounds in BHK cell cultures. […] Three to four thousand cells were then examined for each dose level and each time interval, and the mitotic index (the ratio of all mitoses to the total number of cells) and the frequencies of each mitotic phase (the ratios of cells in each phase to total mitoses) were determined. […] Chromium compounds and cell treatments.- The tested compounds of Cr(VI) and Cr(III) and their physico-chemical properties are listed in Table I. In many experiments in which most of them were highly insoluble or only partially soluble (see Tables I, IV, V), Cr compounds were directly suspended in the growth medium used for treatments. In the experiments on the induction of chromosome aberrations and SCE in CHO cells, almost complete solubilization was obtained in N HCI for Cr(III) compounds and 0-5N NaOH for Cr(VI) compounds, after which they were diluted with MEM to the final concentrations specified in Table IX. […] The cytotoxic and clastogenic effects were usually deter- mined just at the end of Cr treatments, but sometimes the treated cells were washed with HBSS and incubated with normal growth medium, so that the effects of Cr were deter- mined at different times after the end of treatment (see Fig. 3 and Table VII).

[2] = test system: BHK 21 Syrian hamster fibroblast line; experiment: DNA, RNA and protein syntheses in BHK cells, Cr compounds added directly to medium; format: cell-based; conditions: 48 h in MEM
Experimental: (§2) Cell growth and labelling.-The reduction in cell growth, based on the nucleic acid content (DNA + RNA) of treated cultures, and the inhibition of DNA, RNA and protein syn- thesis, based on the incorporation of labelled precursors, were determined, to evaluate the cytotoxic effects of Cr compounds in BHK cell cultures. […] Three to four thousand cells were then examined for each dose level and each time interval, and the mitotic index (the ratio of all mitoses to the total number of cells) and the frequencies of each mitotic phase (the ratios of cells in each phase to total mitoses) were determined. […] Chromium compounds and cell treatments.- The tested compounds of Cr(VI) and Cr(III) and their physico-chemical properties are listed in Table I. In many experiments in which most of them were highly insoluble or only partially soluble (see Tables I, IV, V), Cr compounds were directly suspended in the growth medium used for treatments. […] The cytotoxic and clastogenic effects were usually deter- mined just at the end of Cr treatments, but sometimes the treated cells were washed with HBSS and incubated with normal growth medium, so that the effects of Cr were deter- mined at different times after the end of treatment (see Fig. 3 and Table VII).

[3] = test system: HEp-2 human epithelial-like line; conditions: 2 h exposure to medium preincubated 2 days with 0.5 mg/ml in presence of BHK cells
Experimental: as §2

[4] = test system: CHO Chinese hamster fibroblast line; experiment: Cell growth of CHO cultures (DNA + RNA content); format: cell-based; conditions: 32 h in MEM
Experimental: as §2

[5] = test system: BHK 21 Syrian hamster fibroblast line; experiment: DNA, RNA and protein syntheses in BHK monolayers exposed to filtered medium preincubated with Cr compounds; format: cell-based;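 further: DNA, RNA and protein synthesis in BHK cultures assessed by incorporation of labelled precursors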
Experimental: as §2

[6] = Solubility of chromium compounds (Table I)
Experimental: as §1

rats = conditions: s.c. in rats; 0% in the controls; ref Maltoni (1976); cited from earlier work
Salmonella = conditions: ref Petrilli & De Flora (1978a,b) and De Flora (1981), cited from earlier work; for Mutagenicity in the plate test: dissolved in 0.5N NaOH
[7] = test system: bacteria and mammalian cells in culture; conditions: 1979, De Flora, 1981, cited from earlier work
[8] = preincubated 48 h with 0.5 mg/ml, cells exposed 24 h
[9] = 0.5 mg/ml, preincubation 2 h, monolayers exposed 24 h
[10] = 0.5 mg/ml, preincubation 1 d, monolayers exposed 24 h
[11] = 0.5 mg/ml, preincubation 2 d, monolayers exposed 24 h
[12] = 0.5 mg/ml, preincubation 3 d, monolayers exposed 24 h
[13] = 0.5 mg/ml, preincubation 6 d, monolayers exposed 24 h
[14] = preincubated 48 h with 0.15/0.05 mg/ml (one value for both), cells exposed 24 h

[Cl][Cr]([Cl])[Cl] [Chromium chloride]
Cell growth ([1]; 0.5 mg/ml): 100 % of controls | DNA synthesis ([2]; 0.5 mg/ml): 100 % of controls | Protein synthesis ([2]; 0.5 mg/ml): 100 % of controls | RNA synthesis ([2]; 0.5 mg/ml): 100 % of controls | Mitotic block (% increase of abnormal metaphases 2-4 h after treatment) [3]: + (+ (<50%)) | Mitotic inhibition, early (% reduction of normal prophases at the end of treatment) [3]: ++ (+ + (30-70%)) | Mitotic inhibition, late (% reduction of normal prophases 24 h after treatment) [3]: + (+ (< 30%)) | Cell growth ([4]; 50 µg/ml): 95 % control | DNA synthesis, preinc. in MEM [5, 8]: 100 % of controls | DNA synthesis, preinc. in MEM+BHK [5, 8]: 100 % of controls | Protein synthesis, preinc. in MEM [5, 8]: 100 % of controls | Protein synthesis, preinc. in MEM+BHK [5, 8]: 100 % of controls | RNA synthesis, preinc. in MEM [5, 8]: 100 % of controls | RNA synthesis, preinc. in MEM+BHK [5, 8]: 100 % of controls | Solubility in water [6]: High

[O]=[Cr](=[O])([O-])[O-].[O]=[Pb].[Pb+2] [Chromium orange, Basic lead chromate]
Frequency of sarcomas at the site of injection (rats): 65-90% | Cell growth ([1]; 0.05 mg/ml): 72 % of controls | Cell growth ([1]; 0.15 mg/ml): 41 % of controls | Cell growth ([1]; 0.5 mg/ml): 0 % of controls | DNA synthesis ([2]; 0.05 mg/ml): 43 % of controls | Protein synthesis ([2]; 0.05 mg/ml): 92 % of controls | RNA synthesis ([2]; 0.05 mg/ml): 84 % of controls | DNA synthesis ([2]; 0.15 mg/ml): 11 % of controls | Protein synthesis ([2]; 0.15 mg/ml): 75 % of controls | RNA synthesis ([2]; 0.15 mg/ml): 53 % of controls | DNA synthesis ([2]; 0.5 mg/ml): 0 % of controls | Protein synthesis ([2]; 0.5 mg/ml): 0 % of controls | RNA synthesis ([2]; 0.5 mg/ml): 0 % of controls | Mitotic block (% increase of abnormal metaphases 2-4 h after treatment) [3]: ++ (+ + (50-100%)) | Mitotic inhibition, early (% reduction of normal prophases at the end of treatment) [3]: ++ (+ + (30-70%)) | Mitotic inhibition, late (% reduction of normal prophases 24 h after treatment) [3]: +++ (+ + + (> 70%)) | Mutagenicity in the plate test (Salmonella): positive | Mutagenicity in the spot test (Salmonella): mutagens | Cell growth ([4]; 5 µg/ml): 100 % control | Cell growth ([4]; 25 µg/ml): 93 % control | Cell growth ([4]; 150 µg/ml): 56 % control | DNA synthesis, preinc. in MEM [5, 9]: 100 % of controls | DNA synthesis, preinc. in MEM+BHK [5, 9]: 100 % of controls | Protein synthesis, preinc. in MEM [5, 9]: 100 % of controls | Protein synthesis, preinc. in MEM+BHK [5, 9]: 100 % of controls | RNA synthesis, preinc. in MEM [5, 9]: 100 % of controls | RNA synthesis, preinc. in MEM+BHK [5, 9]: 100 % of controls | DNA synthesis, preinc. in MEM [5, 10]: 84 % of controls | DNA synthesis, preinc. in MEM+BHK [5, 10]: 95 % of controls | Protein synthesis, preinc. in MEM [5, 10]: 100 % of controls | Protein synthesis, preinc. in MEM+BHK [5, 10]: 100 % of controls | RNA synthesis, preinc. in MEM [5, 10]: 100 % of controls | RNA synthesis, preinc. in MEM+BHK [5, 10]: 100 % of controls | DNA synthesis, preinc. in MEM [5, 11]: 54 % of controls | DNA synthesis, preinc. in MEM+BHK [5, 11]: 86 % of controls | Protein synthesis, preinc. in MEM [5, 11]: 92 % of controls | Protein synthesis, preinc. in MEM+BHK [5, 11]: 100 % of controls | RNA synthesis, preinc. in MEM [5, 11]: 85 % of controls | RNA synthesis, preinc. in MEM+BHK [5, 11]: 96 % of controls | DNA synthesis, preinc. in MEM [5, 12]: 47 % of controls | DNA synthesis, preinc. in MEM+BHK [5, 12]: 78 % of controls | Protein synthesis, preinc. in MEM [5, 12]: 100 % of controls | Protein synthesis, preinc. in MEM+BHK [5, 12]: 100 % of controls | RNA synthesis, preinc. in MEM [5, 12]: 81 % of controls | RNA synthesis, preinc. in MEM+BHK [5, 12]: 100 % of controls | DNA synthesis, preinc. in MEM [5, 13]: 21 % of controls | DNA synthesis, preinc. in MEM+BHK [5, 13]: 52 % of controls | Protein synthesis, preinc. in MEM [5, 13]: 78 % of controls | Protein synthesis, preinc. in MEM+BHK [5, 13]: 92 % of controls | RNA synthesis, preinc. in MEM [5, 13]: 66 % of controls | RNA synthesis, preinc. in MEM+BHK [5, 13]: 72 % of controls | DNA synthesis, preinc. in MEM [5, 8]: 62 % of controls | DNA synthesis, preinc. in MEM+BHK [5, 8]: 100 % of controls | Protein synthesis, preinc. in MEM [5, 8]: 100 % of controls | Protein synthesis, preinc. in MEM+BHK [5, 8]: 100 % of controls | RNA synthesis, preinc. in MEM [5, 8]: 93 % of controls | RNA synthesis, preinc. in MEM+BHK [5, 8]: 100 % of controls | DNA synthesis, preinc. in MEM [5, 14]: 100 % of controls | DNA synthesis, preinc. in MEM+BHK [5, 14]: 100 % of controls | Protein synthesis, preinc. in MEM [5, 14]: 100 % of controls | Protein synthesis, preinc. in MEM+BHK [5, 14]: 100 % of controls | RNA synthesis, preinc. in MEM [5, 14]: 100 % of controls | RNA synthesis, preinc. in MEM+BHK [5, 14]: 100 % of controls | Solubility in water [6]: Very low

O=S(=O)([O-])[O-].O=S(=O)([O-])[O-].O=S(=O)([O-])[O-].[Cr+3].[Cr+3] [Chromium sulphate]
Cell growth ([1]; 0.5 mg/ml): 68 % of controls | DNA synthesis ([2]; 0.5 mg/ml): 45 % of controls | Protein synthesis ([2]; 0.5 mg/ml): 69 % of controls | RNA synthesis ([2]; 0.5 mg/ml): 55 % of controls | Mitotic block (% increase of abnormal metaphases 2-4 h after treatment) [3]: + (+ (<50%)) | Mitotic inhibition, early (% reduction of normal prophases at the end of treatment) [3]: + (+ (< 30%)) | Mitotic inhibition, late (% reduction of normal prophases 24 h after treatment) [3]: + (+ (< 30%)) | Cell growth ([4]; 5 µg/ml): 100 % control | Cell growth ([4]; 25 µg/ml): 100 % control | Cell growth ([4]; 150 µg/ml): 93 % control | DNA synthesis, preinc. in MEM [5, 8]: 82 % of controls | DNA synthesis, preinc. in MEM+BHK [5, 8]: 100 % of controls | Protein synthesis, preinc. in MEM [5, 8]: 100 % of controls | Protein synthesis, preinc. in MEM+BHK [5, 8]: 100 % of controls | RNA synthesis, preinc. in MEM [5, 8]: 87 % of controls | RNA synthesis, preinc. in MEM+BHK [5, 8]: 100 % of controls

[O]=[Cr](=[O])([O-])[O-].[Pb+2] [lead chromate]
Mutagenicity for bacteria and mammalian cells in culture ([7]; fine suspension in water, ref Newbold et al.): inactive as a mutagen | Point mutations in bacteria ([7]; solubilized in acids and alkalis, ref Nestmann et al.): induce point mutations | Mutagenicity in the plate test (Salmonella): positive

Chromium sulphate [Chromium alum]
Frequency of sarcomas at the site of injection (rats): 20-25% | Cell growth ([1]; 0.5 mg/ml): 88 % of controls | DNA synthesis ([2]; 0.5 mg/ml): 66 % of controls | Protein synthesis ([2]; 0.5 mg/ml): 96 % of controls | RNA synthesis ([2]; 0.5 mg/ml): 89 % of controls | Mitotic block (% increase of abnormal metaphases 2-4 h after treatment) [3]: + (+ (<50%)) | Mitotic inhibition, early (% reduction of normal prophases at the end of treatment) [3]: _ | Mitotic inhibition, late (% reduction of normal prophases 24 h after treatment) [3]: + (+ (< 30%)) | Cell growth ([4]; 5 µg/ml): 100 % control | Cell growth ([4]; 25 µg/ml): 100 % control | Cell growth ([4]; 150 µg/ml): 100 % control | DNA synthesis, preinc. in MEM [5, 8]: 92 % of controls | DNA synthesis, preinc. in MEM+BHK [5, 8]: 100 % of controls | Protein synthesis, preinc. in MEM [5, 8]: 100 % of controls | Protein synthesis, preinc. in MEM+BHK [5, 8]: 100 % of controls | RNA synthesis, preinc. in MEM [5, 8]: 100 % of controls | RNA synthesis, preinc. in MEM+BHK [5, 8]: 100 % of controls
